Source: patent US20210108199A1, “Treatment for aggressive cancers by targeting C9ORF72” (The Trustees of Columbia University in the City of New York, priority 2017, published 2021)
Counter-ions that a name gives are not always drawn. Where a SMILES comes first, the peptide text is derived from it. The star is where a group is joined. Cbz = O=C(OCc1ccccc1)*; CH2F = FC*

What was measured:
Format in all cases: cell-based
[1] = test system: U87 cells; assay: Macropinocytosis inhibition with EIPA; details: C9 KD U87 cells, 20 μM EIPA vs DMSO
Experimental: Cell were treated with control and C9 siRNA. After 6 hours, media were replaced and control and siC9 cells were either treated with DMSO or with 20 μM 5-(N-Ethyl-N-isopropyl) amiloride (Sigma™, A3085). After 3 days, cells were then imaged using Nikon Eclipse™ Ts2-FL Inverted Fluorescence Microscope and vacuoles from images were quantitated using ImageJ™.
In another study to further confirm the macropinocytotic origin of the vacuoles, 5-(N-ethyl-N-isopropyl) amiloride (EIPA), a macropinocytosis inhibitor was used.
FIG. 9 presents phase contrast images (40×) of U87 cells treated with control or C9 siRNA (SEQ ID NO;631) and incubated in DMSO (siCtrl+DMSO and siC9+DMSO, respectively) or in 20 μM Amiloride (siCtrl+EIPA 20 μM and siC9+EIPA 20 μM, respectively). The scale bar represents 10 μm. WB on the right represents C9 KD efficiency in EIPA treated U87 cells. […] Statistical significance was assessed by an unpaired t-test: NS P>0.05, *P≤0.05, **P≤0.01, ***P≤0.001 ****P≤0.0001.

[2] = test system: U87 cells; assay: RAC1 inhibition with NSC23766, vacuoles per cell; details: C9 KD U87 cells, 100 μM NSC23766 vs DMSO, 3 days
Experimental: Macropinocytosis is known to depends on RAC1 activation which induces membrane ruffling (through actin rearrangement) that mature into macropinosomes. If the accumulated vacuoles are of macropinocytotic origin, then inhibition of RAC1 should rescue their accumulation. To test this, cells were treated with control or C9 siRNA in combination with NSC23766 (NSC), a RAC1 inhibitor.
FIG. 11A, FIG. 11B, FIG. 11C and FIG. 11D are a set of phase contrast images (20×) of U87 cells treated with control or C9 siRNA (SEQ ID NO:631) and incubated in DMSO (siCtrl+DMSO and siC9+DMSO, respectively) or in 100 μM RAC1 inhibitor NSC23766 (siCtrl+NSC and siC9+NSC, respectively). The scale bar represents 10 μm. […] FIG. 12 is a graph representing quantitation of the data for U87 cells treated with control (n=76) siRNA and DMSO (blue dots), U87 cells treated with C9 siRNA (n=41) with DMSO (red squares), U87 cells treated with control (n=74) siRNA and 100 μm of NSC (green dots), and U87 cells treated with C9 siRNA (n=73) with 100 μm of NSC (purple dots). Statistical significance was assessed by an unpaired t-test: NS P>0.05, *P≤0.05, **P≤0.01, ***P≤0.001 ****P≤0.0001.

[3] = test system: U87 cells; assay: Viability rescue with caspase inhibitor Z-VAD-FMK
Experimental: For viability assays (performed in 6-well plates), cells were harvested using trypsin (0.5 ml per well) and the media were saved from each well. The saved media was re-suspended with the trypsinised cells and 2-3 aliquots (50 μL each) of this suspension were taken into a 96-well plates. CellTiter-Glo™ (CTG) Luminescent Viability assay was used to measure the viability of these aliquots. CTG-media mixture (150 μL) were added to each well. The rest of the culture was used to extract protein. The viability of cells was measured using the 1:1 dilution of the CellTiter-Glo™ Luminescent reagent (Promega™, cat #G7573) with media, which was read on Victor™ 5 plate reader after 10 minutes of shaking at room temperature. The intensity of luminescence was normalized to that of the DMSO (Sigma™, D5879) control.
To confirm that cells undergo non-apoptotic death, apoptosis was blocked with a broad caspase inhibitor Z-VAD-FMK upon C9 KD. […] Additionally, the apoptosis inducer, staurosporine (STS), was used to asses Z-VAD-FMK efficacy. […] A beta galactosidase staining technique was used to asses senescence upon C9 KD. […] See FIG. 20, for which U87 cells were treated with control (siCtrl) and C9 (siC9; SEQ ID NO:631) siRNA and then subjected to β-Galactosidase Staining.

[4] = test system: p53; assay: p53 western blot in p53 null U87 cells treated with doxorubicin; details: p53 null U87 cells (KO #4)
Experimental: To generate p53 knockout clones, U87 cells (7×10^5) were transfected with 2 μg p53 CRISPR/Cas9 KO plasmid (Santa Cruz Biotech™, sc-416469) using Lipofectamine 2000 (ThermoFisher™). Two days later, cells were treated with Nutlin-3 (10 μM) for 12 days to inhibit proliferation of cells with wild type p53, thereby enriching for p53 knockout cells. Single-cell clones were selected via limiting dilution, and p53 knockout clones were confirmed by western blotting using p53 antibody (FL-393).
To further validate the dependency of vacuolization on p53, two p53 null cell lines were generated using CRISPR. First, the cells lack of p53 was validated by treating them doxorubicin, […]. […] See FIG. 31, which is a WB showing p53 levels in wtp53 U87 (WT p53) cells and in p53 null U87 cells treated with DMSO (KO #4+DMSO) or DOX (KO #4+DOX).

[5] = test system: U87 cells; assay: TUNEL assay for DNA breaks; details: vs control
Experimental: Cells were treated with control and C9 siRNA for three days. On day three, cells were collected for TUNEL assay using the FlowTACS kit (TREVIGEN™, 4817-60-K) according to manufacturer's instructions to detect DNA fragmentation. For a positive control, DNA damage was induced using doxorubicin. Data were collected on a FACSCalibur™ flow cytometer (Becton Dickinson™) and data analysis performed on FlowJo™.
ROS can cause oxidative DNA damage. Since elevated ROS levels were observed under C9 KD conditions, it may cause increase in DNA damage. To test this hypothesis, a TUNEL assay was used to measure DNA breaks. […] In addition to C9KD, U87 cells were treated with a known chemotherapeutic DNA damage-inducing drug to serve as a positive control for DNA damage (see FIG. 23). FIG. 23 presents data for the TUNEL assay of U87 cells treated as described for FIG. 21 and for positive DNA-damage control with 0.5 μM doxorubicin (DOX). FIG. 23A presents data for the percentage of cells with DNA fragmentation (shown by DNA damage) comparing control (siCtrl) C9 KD (siC9; SEQ ID NO:631) and DOX-treated cells as measured by FACS analysis. […] FIG. 24 is a set of graphs showing data for cells treated as described for FIG. 23, with the exception of using a different C9 siRNA, indicated as siC9 #2 (SEQ ID NO:633).

[6] = test system: p53; assay: Western blot of phospho-p53, p53 and p21; details: U87 cells
Experimental: For Western blot analysis, cells were lysed with lysis buffer (20 mM sodium phosphate (pH 7.0), 250 mM NaCl, 30 mM sodium pyrophosphate, 0.1% Nonidet™ P-40, 5 mM EDTA, 10 mM NaF, 0.1 mM Na3VO4, and 1 mM PMSF) supplemented with complete protease inhibitors (Roche™) and homogenized by passage through a 28 gauge needle. Protein concentration was measured with a Bio-Rad™ protein assay dye reagent and results were read using a spectrophotometer (BiophotometerPlus™ by Eppendorf™). Protein extracts were resolved by SDS PAGE on gradient (Thermo Fisher™) or 12% gels. Proteins were then electrotransferred at 350 mA for 80 minutes onto a PVDF membrane (Immobilon-P PVDF). Membranes were blocked with PBST with 5% milk and 1% BSA for 30 minutes. Quantitation of blots was performed Image Studio Lite software (LI-COR Biosciences™).
One of the responses to DNA damage is activation of p53 by ATM. Upon DNA damage, ATM activation leads to p53 phosphorylation, which activates p53 as a transcription factor. Since increased DNA damage was observed upon C9 KD, whether p53 is activated in C9 depleted cells was investigated. First, total p53 levels were measured in U87 cells treated with control and two independent siRNAs against C9. […] Then, the levels of phosphorylated (active) p53 (at s15) was measured. Phosphorylation of s15 on p53 was increased in both C9 siRNA samples.

CCN(c1nc(N)c(C(=O)NC(=N)N)nc1Cl)C(C)C [EIPA, 5-(N-ethyl-N-isopropyl) amiloride]
vacuole formation [1]: significant inhibition of vacuole formation

CCN(CC)CCCC(C)Nc1nc(C)cc(Nc2ccc3nc(C)cc(N)c3c2)n1 (stereo not drawn) [NSC23766]
vacuoles per cell [2]: significant drop in vacuoles

COC(=O)C[C@H](NC(=O)[C@H](C)NC(=O)[C@@H](NC(=O)OCc1ccccc1)C(C)C)C(=O)CF [Z-VAD-FMK] (Cbz-Val-Ala-Asp(OMe)-CH2F)
rescue of cell viability ([3]; C9 KD U87 cells): did not significantly rescue
rescue of cell viability ([3]; staurosporine (STS) treated U87 cells): able rescue viability

COc1cccc2c1C(=O)c1c(O)c3c(c(O)c1C2=O)C[C@@](O)(C(=O)CO)C[C@@H]3O[C@H]1C[C@H](N)[C@H](O)[C@H](C)O1 [doxorubicin, Doxorubicin hydrochloride]
p53 accumulation [4]: did not induce p53 accumulation

siC9 #2: siRNA targeting C9 mRNA: GCACAUAUGGACUAUCAAUtt (SEQ ID NO:633; sense) and AUUGAUAGUCCAUAUGUGCtg (SEQ ID NO:634; antisense) (sense GCACAUAUGGACUAUCAAUTT; antisense AUUGAUAGUCCAUAUGUGCTG; chemistry not given here)
DNA breaks (TUNEL) [5]: increase in DNA breaks
p21 protein levels [6]: increased p21 protein levels
phosphorylation of s15 on p53 [6]: increased
total p53 levels [6]: elevates p53 levels
